Test results taken from patent US20120022142A1, “RNA Interference Mediated Inhibition of Signal Transducer and Activator of Transcription 1 (STAT1) Gene Expression Using Short Interfering Nucleic Acid (siNA)” (Merck Sharp & Dohme Corp., priority 2009, published 2012).
[invAb] = inverted abasic unit; m = 2'-O-methyl; r = 2'-OH (RNA); f = 2'-fluoro

Legend:
[1] = tested on: STAT1 human mRNA; assay: Initial screen of siNAs: STAT1 mRNA knock-down in A549 cells (96-well transfection, Taqman RT-PCR); assay type: cell-based; details: 10 nM siNA, 24 hrs, normalized against GAPDH, average of 2 experiments
Method: A549 (human; ATCC cat# CCL-185): Cells were cultured at 37° C. in the presence of 5% CO2 and grown in Ham's F12K medium with 2 mM L-glutamine adjusted to contain 1.5 g/L sodium bicarbonate and supplemented with fetal bovine serum at a final concentration of 10% and 100 μg/mL of streptomycin and 100 U/mL penicillin.
(§1) Cells were plated in all wells of a tissue-culture treated, 96-well plate at a final count of 5000 cells/well in 100 μL of the appropriate culture media. The cells were cultured for 24 hours after plating at 37° C. in the presence of 5% CO2.
(§2) After 24 hours, complexes containing siNA and RNAiMax were created as follows: A solution of RNAiMax diluted 33-fold in OPTI-MEM was prepared. In parallel, solutions of the siNAs for testing were prepared to a final concentration of 120 nM in OPTI-MEM. After incubation of RNAiMax/OPTI-MEM solution at room temperature for 5 min, an equal volume of the siNA solution and the RNAiMax solution were added together for each of the siNAs.
(§3) This solution was incubated at room temperature for 20 minutes. After incubation, 20 uL of the solution was added to each of the relevant wells. The final concentration of siNA in each well was 10 nM and the final volume of RNAiMax in each well was 0.3 ul.
(§4) The time of incubation with the RNAiMax-siNA complexes was 24 hours and there was no change in media between transfection and harvesting, unless otherwise indicated.
(§5) RNA was extracted from a 96-well plate using the TaqMan® Gene Expression Cells-to-CT™ Kit (Cat# 4399002) with a modified protocol. Briefly, a 60 uL (1 plate) or 110 uL (2 plates) of the Lysis Solution with DNase I was dispensed into each well of the Lysis Buffer Plate (twin.tec full skirt plate). The lysis buffer and stop plates were stored at 4° C. until the cells were washed.
(§6) The culture medium was aspirated and discarded from the wells of the culture plate. 50 uL of chilled DPBS was added to each well, then aspirated and discarded. The lysis was performed automatically using a BioMek FX instrument and method. After the Biomek method was completed, the lysis plate was incubated for 2 min at room temperature. The lysis plate can be stored for 2 hours at 4° C., or at −20° C. or −80° C. for two months.
(§7) Each well of the reverse transcription plate required 10 uL of 2× reverse transcriptase Buffer, 1 uL of 20× reverse transcription enzyme and 2 uL of nuclease-free water. The reverse transcription master mix was prepared by mixing 2× reverse transcription buffer, 20× reverse transcription enzyme mix, and nuclease-free water. 13 uL of the reverse transcription master mix was dispensed into each well of the reverse transcription plate (semi-skirted). A separate reverse transcription plate was prepared for each cell plate. The plate was loaded onto a Biomek NX or Biomek FX Dual-96 and the Biomek method was run. The program is programmed to automatically added 7 uL of lysate from the cell lysis procedure described above into each well of the reverse transcription plate. The plate is sealed and spun on a centrifuge (1000 rpm for 30 seconds) to settle the contents to the bottom of the reverse transcription plate. The plate is placed in a thermocycler at 37° C. for 60 min, 95° C. for 5 min, and 4° C. until the plate is removed from the thermocycler. Upon removal, if not used immediately, the plate was frozen at −20° C.
(§8) A series of probes and primers were used to detect the various mRNA transcripts of the genes of β-Actin (human cell line only), and of STAT1 and GAPDH in mouse and human cell lines. All Taqman probes and primers for the experiments here-in described were supplied as pre-validated sets by Applied Biosystems, Inc. (see Table 2).
The assays were performed on an ABI 7900 instrument, according to the manufacturer's instructions.
Within each experiment, the baseline was set in the exponential phase of the amplification curve, and based on the intersection point of the baselines with the amplification curve, a Ct value was assigned by the instrument. […]

[2] = tested on: STAT1 mouse mRNA; assay: Initial screen of siNAs: STAT1 mRNA knock-down in NIH 3T3 cells (96-well transfection, Taqman RT-PCR); assay type: cell-based; details: 10 nM siNA, 24 hrs, normalized against GAPDH, average of 2 experiments
Method: NIH 3T3 (mouse; ATCC cat# CRL-1658): Cells were cultured at 37° C. in the presence of 5% CO2 and grown in Dulbecco's modified Eagle's medium (DMEM) with 4 mM L-glutamine adjusted to contain 1.5 g/L sodium bicarbonate and 4.5 g/L glucose and supplemented with fetal bovine serum at a final concentration of 10%, 100 μg/mL of streptomycin, and 100 U/mL penicillin.
as §1, §2, §3, §4, §5, §6, §7, §8
The assays were performed on an ABI 7900 instrument, according to the manufacturer's instructions. […]

Substance | % KD Human [1] [%] | % KD Mouse [2] [%]
25370-DC: STAT1 siNA duplex, human target site 785; modified strands SEQ ID NO: 77 and 78 (chain 1 AAGUCAGAAAUGUGAAGGATT; chain 2 UCCUUCACAUUUCUGACUUUU; chain 1: DNA at AGT, 2'-fluoro at CU, [invAb] at 5' end, 3' end, backbone not given here; chain 2: sugars from the 5' end rrrfffmfmfffffmmfffmm, backbone not given here) | 84 | 76
25371-DC: STAT1 siNA duplex, human target site 432; modified strands SEQ ID NO: 79 and 80 (chain 1 CAUGGAAAUCAGACAGUACTT; chain 2 GUACUGUCUGAUUUCCAUGUU; chain 1: DNA at AGT, 2'-fluoro at CU, [invAb] at 5' end, 3' end, backbone not given here; chain 2: sugars from the 5' end rrrffmfffmmfffffmfmmm, backbone not given here) | 89 | 85
25373-DC: STAT1 siNA duplex, human target site 2160; modified strands SEQ ID NO: 83 and 84 (chain 1 CAGUGAGAGCUCCCGGGAATT; chain 2 UUCCCGGGAGCUCUCACUGUU; chain 1: DNA at AGT, 2'-fluoro at CU, [invAb] at 5' end, 3' end, backbone not given here; chain 2: sugars from the 5' end rrrffmmmmmfffffmffmmm, backbone not given here) | 30 | 24
